# In US5707979A, “Phosphinic acid derivatives, their preparation and their use” (Hoechst Aktiengesellschaft, priority 1994, dated 1998):
# Target: HIV protease (Human immunodeficiency virus type 1 group M subtype B, UniProt P04585)
# Test: Test for inhibition of the HIV protease
# Assay type: biochemical
# Conditions: carried out as described in EP 0 428 849 A2, read-out: IC50 (concentration at which the activity of the enzyme is halved)
# Method: 24) Test for inhibition of the HIV protease
# The test for inhibition of the HIV protease was carried out as described in EP 0 428 849 A2. The following IC50 values indicate the concentration at which the activity of the enzyme is halved;
row,IC50 [µM],Structure (SMILES)
1,4.8,"O=C1N(Cc2ccc(CO)cc2)[C@@H](Cc2ccccc2)P(=O)(O)[C@@H](Cc2ccccc2)N1Cc1ccc(CO)cc1 [Example 12, ([2R],[6S])-Dibenzyl-3,5-(4-hydroxymethylbenzyl)-1-hydroxy-3,5-diaza-4-oxophosphorinone-1-oxide]"
2,0.24,"O=C1N(Cc2ccc(CO)cc2)[C@@H](Cc2ccccc2)P(=O)(O)[C@H](Cc2ccccc2)N1Cc1ccc(CO)cc1 (relative stereo) [Example 23, ([2R],[6S])-Dibenzyl-3,5-(4-hydroxymethylbenzyl)-1-hydroxy-3,5-diaza-4-oxophosphorinane-1-oxide (racemate composed of [2S,6S] and [2R,6R])]"
3,18,"O=C1N(Cc2ccc(CBr)cc2)[C@@H](Cc2ccccc2)P(=O)(O)[C@@H](Cc2ccccc2)N1Cc1ccc(CBr)cc1 [Example 13, ([2R],[6S])-Dibenzyl-3,5-(4-bromomethylbenzyl)-1-hydroxy-3,5-diaza-4-oxophosphorinone-1-oxide]"

# The next lines start with the compound.
row,Structure (SMILES),IC50 [µM]
1,"O=C1N(Cc2ccccc2)[C@@H](Cc2ccccc2)P(=O)(O)[C@@H](Cc2ccccc2)N1Cc1ccccc1 [Example 10, ([2R],3,5,[6S])-Tetrabenzyl-1-hydroxy-3,5-diaza-4-oxophosphorinone-1-oxide]",50
2,"O=C1N(Cc2ccc3ccccc3c2)[C@@H](Cc2ccccc2)P(=O)(O)[C@H](Cc2ccccc2)N1Cc1ccc2ccccc2c1 (relative stereo) [Example 19, 2,6-Dibenzyl-3,5-(2-naphthylmethyl)-1-hydroxy-3,5-diaza-4-oxophosphorinane-1-oxide (racemate composed of [2S,6S] and [2R,6R])]",0.32
